# In PubChem BioAssay AID1159557 (GlaxoSmithKline (GSK), 2015):
# pIC50: −log10 of the molar value. The source made the active and inactive calls. How the calls were made is not given here.
# System: Trypanosoma brucei growth inhibition
# Assay: T. brucei growth inhibition (AID 1159557);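 further: parasites exposed to compound for 48 h before the resazurin readout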
Structure (SMILES),IC50,pIC50
Cc1nnnn1-c1cccc(C(=O)N2CCC[C@@]3(C)c4ncncc4CCC23)c1 (stereo not given in full),> 40 µM (inactive),
O=C(Nc1nc(-c2ccccn2)cs1)c1ccc(S(=O)(=O)N2CCCCC2)cc1,,6.40
COc1ccc(C2CC(c3ccc(NS(C)(=O)=O)cc3)=NN2C(=O)c2cccs2)cc1OC (stereo not given),,4.80
NS(=O)(=O)c1ccc(Nc2nccc(-c3cnn4ncccc34)n2)cc1,,7.10
COc1ccccc1-c1c(C)[nH]c2nc(N)nc(C)c12,,4.60
COc1ccc(-c2cc(C)no2)cc1S(=O)(=O)Nc1ccc(C)c(C)c1,,4.70
Cc1nc(-c2ccncc2)ncc1C(C)NC(=O)c1ccc(Cl)s1 (stereo not given),,6.00
Cc1[nH]nc2c1C(c1ccc(OCc3ccccc3F)cc1)SCC(=O)N2 (stereo not given),,4.60
CC(Cn1ccnc1)NC(=O)COc1ccc(Cl)c(Cl)c1 (stereo not given),> 40 µM (inactive),
CCc1cccc(CC)c1-n1c(SCC(=O)NC(=O)NCc2ccco2)nnc1-c1cccnc1,,6.40
O=c1[nH]ccc2ccc(-c3ccncc3)cc12,,4.49
O=C1NCCn2ccc(Nc3nc(NC4CCC(O)CC4)ncc3Cl)c21 (stereo not given),,6.30
Cc1[nH]c2ccccc2c(=O)c1Cc1c(C)[nH]c2ccccc2c1=O,> 40 µM (inactive),
CCC(c1ccc(F)cc1)n1cncc1-c1cnn(C)c1 (stereo not given),> 40 µM (inactive),
Cc1c(CNC(=O)c2ccc(Cn3cc(Cl)c([N+](=O)[O-])n3)cc2)cnn1C,,5.30
Cc1[nH]nc(-c2nc3ccccc3[nH]2)c1C(=O)NC1CCCNC1 (stereo not given),,6.40
N#Cc1nc(C=Cc2ccccc2)oc1NCc1cccnc1,,4.80
Cc1cccnc1NC(=O)c1cccc(OCc2c(C)noc2C)c1,,6.40
COc1ccc(CN(C)Cc2ccncc2)cc1-c1ccc(S(=O)(=O)NC2CCC2)s1,> 40 µM (inactive),
CC(=Cc1ccccc1)CN1CCC(=O)N(Cc2cccnc2)CC1,> 40 µM (inactive),
Cc1cccc(Nc2nc(-c3ccccn3)cs2)n1,,6.00
O=C(NC(CO)c1ccc(F)cc1)c1ccc(-c2c[nH]c3ncccc23)s1 (stereo not given),,6.60

Structure (SMILES),IC50,pIC50
O=C(NCCc1ccn(-c2ccccc2)n1)C1CCCCC1,,6.60
O=C(CN(Cc1ccccn1)Cc1ccccn1)NC1Cc2ccccc2C1,,4.70
NCc1ccc2c(Cl)cc(Cl)c(O)c2n1,,6.40
CC(C)(C)CC(=O)NCc1noc(COc2ccccc2)n1,,6.20
CC(C)(C)c1cc(NC2CC2)nc(-c2ccccn2)n1,,5.10
Cc1[nH]nc(C(F)(F)F)c1NC(=O)CCn1cc(Cl)c([N+](=O)[O-])n1,,6.30
COc1ccc(-c2nc3ncccc3o2)cc1NC(=O)c1cccs1,,5.89
O=C(CN(Cc1ccccn1)Cc1ccccn1)NCc1ccc2c(c1)OCO2,,5.20
O=C(Cc1ccc2c(c1)CCC2)Nc1n[nH]c(-c2ccccn2)n1,,4.70
O=C(NCCc1ccccn1)C(c1cn[nH]c1)N1CCN(c2ccc(Cl)c(Cl)c2)CC1 (stereo not given),,4.89
Nc1nc(-c2ccccc2)cc(-c2nc3ncccc3[nH]2)n1,,5.00
CN(Cc1cc2ccccc2s1)c1ncc2c(N)nc(N)nc2n1,,4.49
CCCc1cc(N)nc(-c2cc(CCC)cc(N)n2)c1,,5.49
O=C(Nc1nc2ccccc2[nH]1)c1c(O)c2cccc3c2n(c1=O)CC3,,4.80
O=S(=O)(NCC(c1cccnc1)N1CCN(c2ccccc2F)CC1)c1ccc(F)cc1 (stereo not given),,4.60
O=C(c1cccc(Cl)c1Cl)N1CCn2c1nc(-c1ccncc1)cc2=O,,4.80
CCc1ccc2nc(NC(=O)c3cc(N4CCOCC4)ccn3)sc2c1,,6.30
COc1cc(C(C)C)c(S(C)(=O)=O)cc1C(=O)N1CCN(c2ccccc2Cl)CC1,,4.60
O=C(NC(c1ccc(Cl)cc1)c1cnccn1)C1CCN(C(=O)Nc2cccc(C(F)(F)F)c2)CC1 (stereo not given),,4.89
CCN(CC)S(=O)(=O)c1ccc(OC)c(NC(=O)c2ccc([N+](=O)[O-])s2)c1,,6.40
O=c1oc2ccccc2n1C1CCN(Cc2ccccc2-c2cccnc2)CC1,,4.40
O=c1cc(NCCCNCc2c[nH]c3ccc(Br)cc23)[nH]c2ccccc12,,6.00

Structure (SMILES),IC50,pIC50
Cc1cc2cncn2c(C2CCCCN2C(=O)c2cccs2)n1 (stereo not given),> 40 µM (inactive),
Cc1cn[nH]c1C1CCCN(Cc2nc3ccccc3n2C)C1 (stereo not given),,5.20
Cc1[nH]n2c(=O)c3c(nc2c1-c1ccc(F)cc1)CCCC3,,6.40
COc1ccc2ncc(Cl)c(CCN3CC[C@H](NCc4cc5c(cn4)OCS5)[C@@H](O)C3)c2n1,,6.49
O=C(NCCCn1cnc2ccccc21)c1ccc(NC(=O)c2ccco2)cc1,,6.70
Cc1nc2c(-c3cccs3)c(C)nn2c(NCCO)c1C,,6.89
N#Cc1cccc(Nc2nccc(N3CCC(NS(=O)(=O)c4cccc(C#N)c4)CC3)n2)c1,,5.20
COc1ccc(CN2CCCCC2c2nc(-c3cccnc3)no2)cc1 (stereo not given),> 40 µM (inactive),
CN(C)c1ccc(-c2cc3nccnc3c(OC[C@H]3CCCNC3)n2)cn1,,5.70
Cc1cc(Nc2cc(C3CC3)[nH]n2)nc(N2CCC[C@H]2C(N)=O)n1,,7.89
O=C(NCCNc1noc(-c2ccc([N+](=O)[O-])cc2)n1)c1ccc(Cl)cc1,,5.49
O=c1ccc2ccc(F)c3c2n1C[C@H]3CN1CCC(NCc2cc3ccccc3o2)CC1,,6.20
O=C(CN(Cc1ccccn1)Cc1ccccn1)NCc1ccc(-c2csnn2)cc1,,4.89
COc1cc2c(cc1OC)[C@H]1[C@@H](C)c3ccc(OC)c(OC)c3CN1CC2,,4.60
CCc1cccc(CC)c1-n1c(SCC(=O)N2CC(=O)Nc3ccccc32)nnc1-c1cccnc1,,6.30
CCOc1ccc(CN(C)Cc2nc(N)nc(Nc3ccc(C)cc3)n2)cc1,,5.60
CN(C)S(=O)(=O)c1cccc(C(=O)Nc2nc(-c3ccccn3)cs2)c1,,6.30
Cc1ccc(NC(C)C(=O)Nc2ccc(C#N)cc2)cc1S(=O)(=O)N1CCCCC1 (stereo not given),,5.10
O=[N+]([O-])c1cccc(Nc2cncc(-c3ccccc3CO)c2)c1,> 40 µM (inactive),
O=C(c1cc2cc(Cl)ccc2[nH]1)N1CCCCC1c1cccnc1 (stereo not given),,4.60
Cc1occc1C(=O)Nc1ccccc1C(=O)Nc1nccs1,,6.40
c1ccc(CNc2cccc3ccncc23)cc1,,4.60

Structure (SMILES),IC50,pIC50
CNC(=O)Oc1ccc(C(=O)NCc2ccccc2)cc1OC(=O)NC,,6.89
c1ccc2c(CCOc3nccnc3-c3ccncc3)c[nH]c2c1,,4.49
COCc1cnc2c(c1SCc1c(F)cccc1Cl)c(=O)n(C)c(=O)n2C,,5.40
COc1ccccc1-n1c(SCC(=O)Nc2ccc3c(c2)OCO3)nc2c(c1=O)SCC2,> 40 µM (inactive),
CCN(CC)S(=O)(=O)c1ccc(Cn2nc(C(=O)Nc3ccncn3)c3ccccc32)cc1,,4.49
CCCCNc1nccc(-c2c(-c3ccc(F)cc3)nn3c(N4CCOCC4)cccc23)n1,,5.00
O=C(C1CCCCC1)N1CCN(c2nnc(-c3ccccc3)c3ccccc23)CC1,,5.00
CC(C)S(=O)(=O)c1ccc(-c2cnc(N)c3cc(-c4ccnc(N)n4)ccc23)cc1,,6.70
CCN(Cc1ccncc1)Cc1ccc(NC(=O)c2cc(-c3ccc(F)cc3)n[nH]2)cc1,> 40 µM (inactive),
CNC(=O)C1Cc2ccccc2N1C(=O)COc1cccc(OC)c1 (stereo not given),,6.20
CN(C)CCN(C)Cc1ccc(F)cc1NS(=O)(=O)c1ccc(Cl)c(Cl)c1,,5.30
CC1CCCN(S(=O)(=O)c2ccc(C(=O)Nc3nc(-c4ccccn4)cs3)cc2)C1 (stereo not given),,6.70
C[C@@H](Oc1cc(-n2cnc3cc(N)ccc32)sc1C(N)=O)c1ccccc1Cl,,6.60
O=C1CN(C2CCCc3c(OCc4ccncc4)cccc32)C(=O)N1C1CCCCC1 (stereo not given),,4.80
CC(C)Nc1nc(Cl)nc2ccccc12,,5.30
Cc1ccc(Nc2nc(C3CCCN3Cc3ccn[nH]3)cs2)nc1 (stereo not given),,6.10
Cc1cc(NC(=O)C2CC2)ccc1OC1CCN(Cc2ccco2)CC1,,6.89
O=C(Nc1nc(-c2ccccn2)cs1)C1CCc2ccccc2C1 (stereo not given),,5.49
CCN(CC)c1ncc(C(=O)c2ccc([N+](=O)[O-])o2)s1,,7.00
NC(N)=Nc1nc(-c2ccc(NC(N)=NCCN3CCCC3)cc2)cs1,,7.40
Cn1nc(-c2ccc(NC(=O)Cc3ccccc3Cl)cc2)c2c(N)ncnc21,,6.40
CC(C)c1nn(-c2nc(N)nc(-c3ccccn3)n2)c(N)c1C1CCCCC1,,5.10

Structure (SMILES),IC50,pIC50
c1cc(-c2ncc(-c3ccn[nH]3)s2)ccn1,,4.70
c1ccc(-c2nc(NC3CCCC3)c3ccccc3n2)nc1,,5.20
O=C(Nc1nc(-c2ccc(F)cc2)cs1)c1ccc([N+](=O)[O-])s1,,6.60
COc1cc(OC)cc(C(=O)N[C@@H](CC(C)C)C(=O)NC2(C#N)CC2)c1,,6.30
CS(=O)(=O)c1ccc(Nc2nccc(-c3cnn4ncccc34)n2)cc1,,6.80
COc1ccc2ncc(Cl)c(CCN3CC[C@@H](NCc4cc5c(cn4)OCS5)[C@H](O)C3)c2n1,,6.49
Cc1ccc(C)c(CN2C(=O)NC3(CCc4ccccc43)C2=O)c1 (stereo not given),,6.30
CC(=O)NCCNc1cc(-c2ccnc(Nc3cccc(Cl)c3)n2)ccn1,,6.70
Cn1nc([N+](=O)[O-])nc1N1CCCCC1,> 40 µM (inactive),
COc1ccc(S(=O)(=O)NC(C)C)cc1Nc1ncc(-c2cccc(F)c2)cn1,,4.70
O=C(Cn1cnc([N+](=O)[O-])n1)Nc1ccc(Cl)cc1C(=O)c1ccccc1,,4.70
CN(C)CCN(C)Cc1ccc(Cl)cc1NS(=O)(=O)c1ccc(Cl)c(Cl)c1,,5.10
CCNc1cc(-c2ccccn2)nc(Nc2ccc(OC)cc2)n1,,4.89
CC(C)(C)CC(=O)NCCc1csc(-c2ccc(F)cc2)n1,,6.20
O=C1CN(C(=O)c2cccc(Nc3ncc(-c4ccc5c(c4)OCO5)cn3)c2)CCN1,> 50 µM (inactive),
O=C(Nc1cccc(F)c1)N1CCC(Oc2cccc(-c3cccnc3)c2)CC1,,4.60
CC(C)(C)C(O)(CCc1ccc(Cl)cc1)Cn1cncn1 (stereo not given),> 40 µM (inactive),
COc1cnc2ccc(=O)n(CCN3CCC(NC(=O)c4ccc(Cl)cc4)CC3)c2c1,,7.10
CC(=O)Nc1ccc(-c2ccnc(Nc3cccc(C#N)c3)n2)cc1,,6.20
CC1(Oc2cncc(Cl)c2)CCN(Cc2cc3ccccc3[nH]2)C1 (stereo not given),> 40 µM (inactive),
CC(=O)Nc1ccc(Nc2nccc(-c3cnn4ncccc34)n2)cc1C(F)(F)F,,7.49
COc1ccc(-c2csc(NC(=O)c3ccc([N+](=O)[O-])s3)n2)cc1,,7.10
